Peptide text beside a SMILES is read from it.
Assays:
Assay type in all cases: biochemical
HDAC3 = target: T1, HDAC3 (Homo sapiens, UniProt O15379); test: HDAC3 inhibition, full IC50 measurement (Reaction Biology; fluorogenic p53 peptide RHKK(Ac)AMC)
T1 construct: purchased Reaction Biology Corporation (assay run by the CRO)
Summary of the method: (§1)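 Reaction: enzyme plus acoustically dispensed peptide inhibitor, 50 μM RHKK(Ac)AMC substrate, pH 8.0 Tris buffer with BSA and 1% DMSO, 1 h, 30 °C. Duplicates averaged.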

HDAC2 [1] = target: T2, HDAC2 (Homo sapiens, UniProt Q92769); test: HDAC2 inhibition, full IC50 measurement (Reaction Biology; fluorogenic p53 peptide RHKK(Ac)AMC); details: for IC50: figure legends, Supp. Table 1, read-out: HDAC2 IC50
T2 construct: purchased Reaction Biology Corporation (assay run by the CRO)
Summary of the method: as §1

HDAC2 [2] = target: T2, HDAC2; test: Initial HDAC2 IC50 estimate (BPS Biosciences HDAC fluorogenic assay kit); details: Supplementary Dataset 2; read-out: HDAC2 activity (initial activity)
Summary of the method: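 Inhibition measured by kit-based fluorogenic HDAC activity assays, with each point in duplicate or triplicate. Values come from a full 1 µM–100 pM series (1:10 steps) or are range estimates from just 20 nM and 200 nM.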

T1 sequence (O15379 whole entry): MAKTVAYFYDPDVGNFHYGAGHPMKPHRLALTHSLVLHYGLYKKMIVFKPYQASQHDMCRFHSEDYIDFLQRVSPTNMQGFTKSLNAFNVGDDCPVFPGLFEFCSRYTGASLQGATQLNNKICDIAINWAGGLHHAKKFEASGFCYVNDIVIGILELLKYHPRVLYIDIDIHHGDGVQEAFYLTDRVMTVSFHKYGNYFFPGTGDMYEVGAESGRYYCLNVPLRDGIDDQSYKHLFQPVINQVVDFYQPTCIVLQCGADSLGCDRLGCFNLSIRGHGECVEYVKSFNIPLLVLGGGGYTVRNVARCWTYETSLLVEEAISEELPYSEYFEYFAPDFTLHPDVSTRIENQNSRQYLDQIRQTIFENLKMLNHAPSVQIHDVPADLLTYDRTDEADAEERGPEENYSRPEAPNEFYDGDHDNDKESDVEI
T1 sequence (Q9Y618 395-489 partner limits assumed): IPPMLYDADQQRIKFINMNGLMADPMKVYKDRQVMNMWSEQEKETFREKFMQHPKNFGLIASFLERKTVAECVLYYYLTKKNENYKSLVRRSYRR
T2 sequence (Q92769 whole entry): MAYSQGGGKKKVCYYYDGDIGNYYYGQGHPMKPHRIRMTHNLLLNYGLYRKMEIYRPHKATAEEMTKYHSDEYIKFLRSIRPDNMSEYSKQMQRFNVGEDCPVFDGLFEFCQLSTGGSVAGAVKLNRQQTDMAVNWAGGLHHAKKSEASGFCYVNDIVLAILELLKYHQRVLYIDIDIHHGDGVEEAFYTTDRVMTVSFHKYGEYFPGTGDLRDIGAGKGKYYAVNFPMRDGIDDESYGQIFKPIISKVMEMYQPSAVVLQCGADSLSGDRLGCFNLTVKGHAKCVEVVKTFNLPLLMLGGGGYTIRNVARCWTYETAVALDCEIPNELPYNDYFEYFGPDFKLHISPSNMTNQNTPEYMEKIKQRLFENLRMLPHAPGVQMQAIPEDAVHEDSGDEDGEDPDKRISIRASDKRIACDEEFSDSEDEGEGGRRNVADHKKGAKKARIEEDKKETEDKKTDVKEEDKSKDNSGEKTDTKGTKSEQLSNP

CC(C)[C@@H]1NC(=O)[C@H](CCCNC(=N)N)NC(=O)[C@@H](CC(=O)O)NC(=O)[C@H](CO)NC(=O)[C@@H](CO)NC(=O)[C@@H](CCC(=O)O)NC(=O)[C@H](Cc2ccc(O)cc2)NC(=O)[C@H](CCCCCS)NC1=O [des4.2.0, SHA-Tyr-dGlu-dSer-Ser-dAsp-Arg-Val] (HELM PEPTIDE1{R.V.[O=C([C@H](CCCCCS)N[*:1])[*:2]].Y.[dE].[dS].S.[dD]}$PEPTIDE1,PEPTIDE1,1:R1-8:R2$$$V2.0)
HDAC3 activity raw data (signal) (HDAC3; Conc. 1.00E-05 M, t1): 26422
HDAC3 activity raw data (signal) (HDAC3; Conc. 1.00E-05 M, t2): 22359
HDAC3 activity raw data (signal) (HDAC3; Conc. 1.11E-06 M, t1): 160928
HDAC3 activity raw data (signal) (HDAC3; Conc. 1.11E-06 M, t2): 163740
HDAC3 activity raw data (signal) (HDAC3; Conc. 1.23E-07 M, t1): 525206
HDAC3 activity raw data (signal) (HDAC3; Conc. 1.23E-07 M, t2): 581691
HDAC3 activity raw data (signal) (HDAC3; Conc. 1.37E-08 M, t1): 1076943
HDAC3 activity raw data (signal) (HDAC3; Conc. 1.37E-08 M, t2): 1111273
HDAC3 activity raw data (signal) (HDAC3; Conc. 1.52E-09 M, t1): 1186064
HDAC3 activity raw data (signal) (HDAC3; Conc. 1.52E-09 M, t2): 1359852
HDAC3 activity raw data (signal) (HDAC3; Conc. 3.33E-06 M, t1): 71800
HDAC3 activity raw data (signal) (HDAC3; Conc. 3.33E-06 M, t2): 63219
HDAC3 activity raw data (signal) (HDAC3; Conc. 3.70E-07 M, t1): 296381
HDAC3 activity raw data (signal) (HDAC3; Conc. 3.70E-07 M, t2): 296142
HDAC3 activity raw data (signal) (HDAC3; Conc. 4.12E-08 M, t1): 806773
HDAC3 activity raw data (signal) (HDAC3; Conc. 4.12E-08 M, t2): 863981
HDAC3 activity raw data (signal) (HDAC3; Conc. 4.57E-09 M, t1): 1182733
HDAC3 activity raw data (signal) (HDAC3; Conc. 4.57E-09 M, t2): 1313514
HDAC3 activity raw data (signal) (HDAC3; Conc. 5.08E-10 M, t1): 1345816
HDAC3 activity raw data (signal) (HDAC3; Conc. 5.08E-10 M, t2): 1394913
IC50 (HDAC3; Supp. Table 1): 71.2 nM
HDAC2 activity raw data (signal) (HDAC2 [1]; Conc. 1.00E-05 M, t1): 20394
HDAC2 activity raw data (signal) (HDAC2 [1]; Conc. 1.00E-05 M, t2): 38836
HDAC2 activity raw data (signal) (HDAC2 [1]; Conc. 1.11E-06 M, t1): 480221
HDAC2 activity raw data (signal) (HDAC2 [1]; Conc. 1.11E-06 M, t2): 475819
HDAC2 activity raw data (signal) (HDAC2 [1]; Conc. 1.23E-07 M, t1): 1083936
HDAC2 activity raw data (signal) (HDAC2 [1]; Conc. 1.23E-07 M, t2): 1073630
HDAC2 activity raw data (signal) (HDAC2 [1]; Conc. 1.37E-08 M, t1): 1586330
HDAC2 activity raw data (signal) (HDAC2 [1]; Conc. 1.37E-08 M, t2): 1580365
HDAC2 activity raw data (signal) (HDAC2 [1]; Conc. 1.52E-09 M, t1): 1730890
HDAC2 activity raw data (signal) (HDAC2 [1]; Conc. 1.52E-09 M, t2): 1745453
HDAC2 activity raw data (signal) (HDAC2 [1]; Conc. 3.33E-06 M, t1): 208395
HDAC2 activity raw data (signal) (HDAC2 [1]; Conc. 3.33E-06 M, t2): 205670
HDAC2 activity raw data (signal) (HDAC2 [1]; Conc. 3.70E-07 M, t1): 726508
HDAC2 activity raw data (signal) (HDAC2 [1]; Conc. 3.70E-07 M, t2): 767311
HDAC2 activity raw data (signal) (HDAC2 [1]; Conc. 4.12E-08 M, t1): 1358432
HDAC2 activity raw data (signal) (HDAC2 [1]; Conc. 4.12E-08 M, t2): 1262650
HDAC2 activity raw data (signal) (HDAC2 [1]; Conc. 4.57E-09 M, t1): 1679024
HDAC2 activity raw data (signal) (HDAC2 [1]; Conc. 4.57E-09 M, t2): 1646125
HDAC2 activity raw data (signal) (HDAC2 [1]; Conc. 5.08E-10 M, t1): 1775852
HDAC2 activity raw data (signal) (HDAC2 [1]; Conc. 5.08E-10 M, t2): 1816576
IC50 (HDAC2 [1]): 214 nM
IC50 (HDAC2 [2]): 200 nM

NCCCC[C@@H]1NC(=O)[C@@H]2CCCN2C(=O)[C@H](CC(N)=O)NC(=O)[C@H](CCCCCS)NC(=O)CNC(=O)[C@H](Cc2c[nH]c3ccccc23)NC(=O)[C@@H](CCCCN)NC(=O)[C@H](CCC(N)=O)NC1=O [des1.1.0, SHA-Asn-Pro-Lys-Gln-dLys-Trp-Gly] (HELM PEPTIDE1{G.[O=C([C@H](CCCCCS)N[*:1])[*:2]].N.P.K.Q.[dK].W}$PEPTIDE1,PEPTIDE1,1:R1-8:R2$$$V2.0)
HDAC3 activity raw data (signal) (HDAC3; Conc. 1.00E-05 M, t1): 5471
HDAC3 activity raw data (signal) (HDAC3; Conc. 1.00E-05 M, t2): 9474
HDAC3 activity raw data (signal) (HDAC3; Conc. 1.11E-06 M, t1): 58802
HDAC3 activity raw data (signal) (HDAC3; Conc. 1.11E-06 M, t2): 66090
HDAC3 activity raw data (signal) (HDAC3; Conc. 1.23E-07 M, t1): 406610
HDAC3 activity raw data (signal) (HDAC3; Conc. 1.23E-07 M, t2): 410292
HDAC3 activity raw data (signal) (HDAC3; Conc. 1.37E-08 M, t1): 1181819
HDAC3 activity raw data (signal) (HDAC3; Conc. 1.37E-08 M, t2): 1197870
HDAC3 activity raw data (signal) (HDAC3; Conc. 1.52E-09 M, t1): 1432990
HDAC3 activity raw data (signal) (HDAC3; Conc. 1.52E-09 M, t2): 1448071
HDAC3 activity raw data (signal) (HDAC3; Conc. 3.33E-06 M, t1): 23719
HDAC3 activity raw data (signal) (HDAC3; Conc. 3.33E-06 M, t2): 26034
HDAC3 activity raw data (signal) (HDAC3; Conc. 3.70E-07 M, t1): 182063
HDAC3 activity raw data (signal) (HDAC3; Conc. 3.70E-07 M, t2): 201749
HDAC3 activity raw data (signal) (HDAC3; Conc. 4.12E-08 M, t1): 761011
HDAC3 activity raw data (signal) (HDAC3; Conc. 4.12E-08 M, t2): 799167
HDAC3 activity raw data (signal) (HDAC3; Conc. 4.57E-09 M, t1): 1249527
HDAC3 activity raw data (signal) (HDAC3; Conc. 4.57E-09 M, t2): 1277477
HDAC3 activity raw data (signal) (HDAC3; Conc. 5.08E-10 M, t1): 1537856
HDAC3 activity raw data (signal) (HDAC3; Conc. 5.08E-10 M, t2): 1472354
HDAC2 activity raw data (signal) (HDAC2 [1]; Conc. 1.00E-05 M, t1): 26927
HDAC2 activity raw data (signal) (HDAC2 [1]; Conc. 1.00E-05 M, t2): 32005
HDAC2 activity raw data (signal) (HDAC2 [1]; Conc. 1.11E-06 M, t1): 219707
HDAC2 activity raw data (signal) (HDAC2 [1]; Conc. 1.11E-06 M, t2): 218492
HDAC2 activity raw data (signal) (HDAC2 [1]; Conc. 1.23E-07 M, t1): 761586
HDAC2 activity raw data (signal) (HDAC2 [1]; Conc. 1.23E-07 M, t2): 802228
HDAC2 activity raw data (signal) (HDAC2 [1]; Conc. 1.37E-08 M, t1): 1027147
HDAC2 activity raw data (signal) (HDAC2 [1]; Conc. 1.37E-08 M, t2): 1098979
HDAC2 activity raw data (signal) (HDAC2 [1]; Conc. 1.52E-09 M, t1): 1105616
HDAC2 activity raw data (signal) (HDAC2 [1]; Conc. 1.52E-09 M, t2): 1105020
HDAC2 activity raw data (signal) (HDAC2 [1]; Conc. 3.33E-06 M, t1): 102737
HDAC2 activity raw data (signal) (HDAC2 [1]; Conc. 3.33E-06 M, t2): 85727
HDAC2 activity raw data (signal) (HDAC2 [1]; Conc. 3.70E-07 M, t1): 469170
HDAC2 activity raw data (signal) (HDAC2 [1]; Conc. 3.70E-07 M, t2): 506124
HDAC2 activity raw data (signal) (HDAC2 [1]; Conc. 4.12E-08 M, t1): 943203
HDAC2 activity raw data (signal) (HDAC2 [1]; Conc. 4.12E-08 M, t2): 906297
HDAC2 activity raw data (signal) (HDAC2 [1]; Conc. 4.57E-09 M, t1): 1010930
HDAC2 activity raw data (signal) (HDAC2 [1]; Conc. 4.57E-09 M, t2): 1048769
HDAC2 activity raw data (signal) (HDAC2 [1]; Conc. 5.08E-10 M, t1): 1134293
HDAC2 activity raw data (signal) (HDAC2 [1]; Conc. 5.08E-10 M, t2): 1187103
IC50 (HDAC2 [1]): 289 nM
IC50 (HDAC2 [2]): 10 to 100 nM

Reference: publication PMC8185074, “Anchor extension: a structure-guided approach to design cyclic peptides targeting enzyme active sites” (Nature Communications, 2021)
